Assay results taken from patent US20240228489A1, “POSITIVE ALLOSTERIC MODULATORS OF THE MUSCARINIC ACETYLCHOLINE RECEPTOR M1” (Vanderbilt University, priority 2021, published 2024).

Columns and labels:
human mAChR M1 [1] = molecular target: T1, human mAChR M1 (Homo sapiens, UniProt P11229); test: mAChR M1 cell-based functional assay (calcium mobilization), PAM mode: increase in the EC20 acetylcholine response
T1 sequence (P11229 1-460): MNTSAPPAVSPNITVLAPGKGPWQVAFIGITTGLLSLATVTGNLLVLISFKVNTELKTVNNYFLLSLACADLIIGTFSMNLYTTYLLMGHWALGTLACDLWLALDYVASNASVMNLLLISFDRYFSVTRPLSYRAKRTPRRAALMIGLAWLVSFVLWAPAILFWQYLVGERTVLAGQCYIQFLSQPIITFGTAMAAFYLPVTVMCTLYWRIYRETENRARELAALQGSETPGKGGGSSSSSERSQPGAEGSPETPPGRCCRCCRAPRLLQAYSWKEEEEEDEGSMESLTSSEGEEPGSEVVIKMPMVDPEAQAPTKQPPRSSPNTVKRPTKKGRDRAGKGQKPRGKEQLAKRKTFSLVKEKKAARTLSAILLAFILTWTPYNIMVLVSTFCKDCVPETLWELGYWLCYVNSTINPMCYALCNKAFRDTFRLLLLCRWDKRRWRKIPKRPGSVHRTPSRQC
In short: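 CHO-K1 cells stably expressing hM1, Fluo-4 loaded, read by FDSS calcium flux at 1 Hz. Compound (11-point 1:3 CRC) added at 4 s, EC20 acetylcholine at 144 s, EC80 at 230 s. PAM activity taken as concentration-dependent increase in EC20 ACh response, fitted by four-parameter logistic for EC50/Emax.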

human mAChR M1 [2] = molecular target: T1, human mAChR M1; test: mAChR M1 cell-based functional assay (calcium mobilization), agonist mode: compound alone, Emax relative to acetylcholine maximum; settings: for Agonist Activity Human M1 EC50 / EC50: human mAChR M1; for Emax: relative to the maximum for acetylcholine
In short: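 CHO-K1 cells stably expressing hM1 were loaded with Fluo-4 AM, and calcium flux was read as fluorescence ratio. Compound was added alone from an 11-point 1:3 curve, and the agonist response was fitted with a four-parameter logistic. Emax is expressed relative to the acetylcholine maximum.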

Compound | EC50 (human mAChR M1 [1]) [nM] | Emax (human mAChR M1 [1]) [%] | Agonist Activity Human M1 EC50 (human mAChR M1 [2]) | Emax (human mAChR M1 [2]) [%] | EC50 (human mAChR M1 [2]) [nM]
[2H]C1([2H])c2ncccc2C(=O)N1Cc1c(F)cc(-c2cnc(OC)c3nn(C)cc23)cc1F [Compound 121, 6-(2,6-difluoro-4-(7-methoxy-2-methyl-2H-pyrazolo[3,4-c]pyridin-4-yl)benzyl)-6,7-dihydro-5H-pyrrolo[3,4-b]pyridin-5-one-7,7-d2] | 2920 | 55 | Inactive | 3 | 
[2H]C1([2H])c2ncccc2C(=O)N1Cc1c(F)cc(-c2ccc(OC(C)C)c3nn(C)cc23)cc1F [Compound 98, 6-(2,6-difluoro-4-(7-isopropoxy-2-methyl-2H-indazol-4-yl)benzyl)-6,7-dihydro-5H-pyrrolo[3,4-b]pyridin-5-one-7,7-d2] | 286 | 76 |  | 21 | 8390
[2H]C1([2H])c2ncccc2C(=O)N1Cc1c(F)cc(-c2cccc3nn(C)cc23)cc1OCC(C)C [Compound 210, 6-(2-fluoro-6-isobutoxy-4-(2-methyl-2H-indazol-4-yl)benzyl)-6,7-dihydro-5H-pyrrolo[3,4-b]pyridin-5-one-7,7-d2] | 865 | 83 | Inactive | 14 | 
[2H]C1([2H])c2ncccc2C(=O)N1Cc1c(F)cc(-c2cccc3nn(C([2H])([2H])[2H])cc23)cc1C1CCCC1 [Compound 224, 6-(2-cyclopentyl-6-fluoro-4-(2-(methyl-d3)-2H-indazol-4-yl)benzyl)-6,7-dihydro-5H-pyrrolo[3,4-b]pyridin-5-one-7,7-d2] | 6460 | 62 | Inactive | 1 | 
[2H]C1([2H])c2ncccc2C(=O)N1Cc1c(F)cc(-c2ccc(OCC3CC3)c3nn(C)cc23)cc1F [Compound 138, 6-(4-(7-(cyclopropylmethoxy)-2-methyl-2H-indazol-4-yl)-2,6-difluorobenzyl)-6,7-dihydro-5H-pyrrolo[3,4-b]pyridin-5-one-7,7-d2] | 837 | 75 |  | 11 | ≥ 10000
[2H]C1([2H])c2ncccc2C(=O)N1Cc1c(F)cc(-c2ccc(OC)c3nn(C([2H])([2H])[2H])cc23)cc1C1CC1 [Compound 209, 6-(2-cyclopropyl-6-fluoro-4-(7-methoxy-2-(methyl-d3)-2H-indazol-4-yl)benzyl)-6,7-dihydro-5H-pyrrolo[3,4-b]pyridin-5-one-7,7-d2] | 769 | 83 |  | 62 | 2580
[2H]C1([2H])c2ncccc2C(=O)N1Cc1c(F)cc(-c2cc(OC)c3nn(C)cc3c2)cc1F [Compound 76, 6-(2,6-difluoro-4-(7-methoxy-2-methyl-2H-indazol-5-yl)benzyl)-6,7-dihydro-5H-pyrrolo[3,4-b]pyridin-5-one-7,7-d2] | 58 | 78 |  | 29 | 3740
[2H]C1([2H])c2ncccc2C(=O)N1Cc1c(F)cc(-c2ccc(OC(C)C)c3nn(C([2H])([2H])[2H])cc23)cc1F [Compound 99, 6-(2,6-difluoro-4-(7-isopropoxy-2-(methyl-d3)-2H-indazol-4-yl)benzyl)-6,7-dihydro-5H-pyrrolo[3,4-b]pyridin-5-one-7,7-d2] | 285 | 83 |  | 25 | 5800
[2H]C1([2H])c2ncccc2C(=O)N1Cc1c(F)cc(-c2ccc(Cl)c3nn(C)cc23)cc1F [Compound 40, 6-(4-(7-chloro-2-methyl-2H-indazol-4-yl)-2,6-difluorobenzyl)-6,7-dihydro-5H-pyrrolo[3,4-b]pyridin-5-one-7,7-d2] | 233 | 66 | Inactive | 1 | 
[2H]C1([2H])c2ncccc2C(=O)N1Cc1c(F)cc(-c2cc(F)c(F)c3c2cnn3C([2H])([2H])[2H])cc1F [Compound 252, 6-(4-(6,7-difluoro-1-(methyl-d3)-1H-indazol-4-yl)-2,6-difluorobenzyl)-6,7-dihydro-5H-pyrrolo[3,4-b]pyridin-5-one-7,7-d2] | > 10000 | 15 | Inactive | 2 | 
[2H]C1([2H])c2ncccc2C(=O)N1Cc1c(F)cc(-c2ccc(OC3CC3)c3nn(C)cc23)cc1OCC(C)C [Compound 212, 6-(4-(7-cyclopropoxy-2-methyl-2H-indazol-4-yl)-2-fluoro-6-isobutoxybenzyl)-6,7-dihydro-5H-pyrrolo[3,4-b]pyridin-5-one-7,7-d2] | 1450 | 82 | Inactive | 2 | 
[2H]C1([2H])c2ncccc2C(=O)N1Cc1c(F)cc(-c2cc(Cl)cc3nn(C)cc23)cc1F [Compound 75, 6-(4-(6-chloro-2-methyl-2H-indazol-4-yl)-2,6-difluorobenzyl)-6,7-dihydro-5H-pyrrolo[3,4-b]pyridin-5-one-7,7-d2] | 626 | 55 | Inactive | 1 | 

Second part, the molecule after the results:

EC50 (human mAChR M1 [1]) [nM] | Emax (human mAChR M1 [1]) [%] | Agonist Activity Human M1 EC50 (human mAChR M1 [2]) | Emax (human mAChR M1 [2]) [%] | EC50 (human mAChR M1 [2]) [nM] | Compound
188 | 75 |  | 36 | 5040 | [2H]C1([2H])c2ncccc2C(=O)N1Cc1c(F)cc(-c2ccc(OC3COC3)c3nn(C)cc23)cc1F [Compound 139, 6-(2,6-difluoro-4-(2-methyl-7-(oxetan-3-yloxy)-2H-indazol-4-yl)benzyl)-6,7-dihydro-5H-pyrrolo[3,4-b]pyridin-5-one-7,7-d2]
980 | 57 |  | 34 | 7700 | [2H]C1([2H])c2ncccc2C(=O)N1Cc1c(F)cc(-c2ccnc3nn(C)cc23)cc1F [Compound 2, 6-(2,6-difluoro-4-(2-methyl-2H-pyrazolo[3,4-b]pyridin-4-yl)benzyl)-6,7-dihydro-5H-pyrrolo[3,4-b]pyridin-5-one-7,7-d2]
167 | 73 |  | 17 | 5430 | [2H]C1([2H])c2ncccc2C(=O)N1Cc1ccc(-c2ccc(OC(C)C)c3nn(C)cc23)cc1F [Compound 109, 6-(2-fluoro-4-(7-isopropoxy-2-methyl-2H-indazol-4-yl)benzyl)-6,7-dihydro-5H-pyrrolo[3,4-b]pyridin-5-one-7,7-d2]
473 | 67 | Inactive | 1 |  | [2H]C1([2H])c2ncccc2C(=O)N1Cc1c(F)cc(-c2ccc(OC3CN(S(=O)(=O)C(C)C)C3)c3nn(C)cc23)cc1F [Compound 187, 6-(2,6-difluoro-4-(7-((1-(isopropylsulfonyl)azetidin-3-yl)oxy)-2-methyl-2H-indazol-4-yl)benzyl)-6,7-dihydro-5H-pyrrolo[3,4-b]pyridin-5-one-7,7-d2]
837 | 86 |  | 12 | ≥ 10000 | [2H]C1([2H])c2ncccc2C(=O)N1Cc1ccc(-c2ccc(OC[C@@H](C)OC)c3nn(C)cc23)cc1F [Compound 175, (R)-6-(2-fluoro-4-(7-(2-methoxypropoxy)-2-methyl-2H-indazol-4-yl)benzyl)-6,7-dihydro-5H-pyrrolo[3,4-b]pyridin-5-one-7,7-d2]
